System: yeast genes (level of expressed mRNA)
Assay: DNA chip analysis of expressed mRNA of yeast genes after 2 h culture with a toxic chemical substance
Assay type: cell-based, Saccharomyces cerevisiae S288C
Details: for The level of expressed mRNA in the presence of chemical substance/ (ratio to absence of chemical substance): stress protein genes, DNA chip
Protocol: Yeast (Saccharomyces cerevtisiae S288C (α SUC2mal mel gap2 CUP1)) were cultured at 25° C. on YPD medium (yeast extract 1%, polypepton 2%, glucose 2%). One of toxic chemical substances was added to the cell at logarithmic growth phase, and the cell was further cultured for two hours. Cell was cultured without any chemical substance in the same condition, and was used as control. Concentrations of the chemical substances were defined to inhibit the growth of the yeast but not lead to death.
After the completion of cultivation, the culture was centrifuged to collect the cells. To the cells, sodium acetate buffer (50 mM sodium acetate, 10 mM EDTA, 1% SDS) was added, and the mixture was shaken at 65° C. for five minutes, followed by returning to room temperature, and obtaining the supernatant, which procedure was repeated two times. To the supernatant, ½ amount of a solution of phenol/chloroform was added, and the mixture was centrifuged to give a supernatant, which was added with an equal amount of chloroform, and the mixture was centrifuged to give a supernatant. To the supernatant, an equal amount of isopropanol containing 0.3 M sodium acetate was added, and the mixture was allowed to stand at room temperature for 30 minutes, after which the mixture was centrifuged to give a sediment of the whole RNAs. Seventy % ethanol was added to the sediment, and the mixture was again centrifuged to give a sediment, which was then dried and dissolved in water. mRNA was isolated from the whole RNAs as followings. In view of the fact that a poly A chain is attached to the 3′ terminus of mRNA, a polynucleotide having a poly T structure which was immobilized on the surface of latex beads was used to trap the mRNA, and then the mRNA was washed and eluted with spine column (Oligotex-dT30<Super>mRNA Purification Kit, Takara). Reverse transcription of the mRNA was conducted with a reverse transcriptase (Super Script II Reverse Transcriptase; catalogue No. 18064-014, GibcoBRL) using fluorescence-labeled nucleotides to give cDNAs that were introduced with Cy3-dUTP or Cy5-dUTP during the reverse transcription.
The labeled cDNAs were dissolved in TE buffer (10 mM Tris-HCl/1 mM EDTA, pH8.0), and the solution was dropped on the DNA chip containing the whole genes of yeast (DNA Chip Research Inc. Japan) so that the cDNAs were hybridized on the DNA chip at 65° C. for over 12 hours. The fluoresces intensity of the DNA chip was read with a scanner, and the ratio relative to the fluorescence intensity resulting from the absence of chemical substance was estimated as the following, which is shown in Tables 1 to 9: [formula]
In the Tables, “Intensity” indicated in the rightmost column is a value of the level of expressed mRNA of each gene in control cells as divided by the average level of the expressions of the whole genes.

Structure (SMILES): S=C([S-])NCCNC(=S)[S-].[Zn+2] [(11), zinc N,N′-ethylenebis(dithiocarbamate)]
- The level of expressed mRNA in the presence of chemical substance/absence: YOR253W (gene YOR253W): 0.9
- The level of expressed mRNA in the presence of chemical substance/absence: YOR267C (gene YOR267C): 0.4
- The level of expressed mRNA in the presence of chemical substance/absence: YOR325W (gene YOR325W): 0.6
- level of expressed mRNA in the presence of chemical substance/in its absence (gene YOR336W): 1.4
- level of expressed mRNA in the presence of chemical substance/in its absence (gene YOR344C): 0.6
- level of expressed mRNA in the presence of chemical substance/in its absence (gene YOR347C): 1.4
- The level of expressed mRNA in the presence of chemical substance/absence: YPL005W (gene YPL005W): 1.1
- level of expressed mRNA in the presence of chemical substance/in its absence (gene YPL017C): 0.4
- The level of expressed mRNA in the presence of chemical substance / the level in the absence of chemical substance, yeast gene YPL107W (gene YPL107W, DNA chip fluorescence ratio to control without chemical, 2 hours culture with chemical, growth-inhibiting non-lethal concentration): 1.1
- The level of expressed mRNA in the presence of chemical substance / the level in the absence of chemical substance, yeast gene YPL138C (gene YPL138C, DNA chip fluorescence ratio to control without chemical, 2 hours culture with chemical, growth-inhibiting non-lethal concentration): 0.5
- The level of expressed mRNA in the presence of chemical substance/absence: YPL150W (gene YPL150W): 1.1
- The level of expressed mRNA in the presence of chemical substance/absence: YPL151C (gene YPL151C): 0.9
- The level of expressed mRNA in the presence of chemical substance/absence: YPL152W (gene YPL152W): 1.4
- The level of expressed mRNA in the presence of chemical substance/absence: YPL168W (gene YPL168W): 0.7
- The level of expressed mRNA in the presence of chemical substance/absence: YPL180W (gene YPL180W): 1.0
- The level of expressed mRNA in the presence of chemical substance/absence: YPL188W (gene YPL188W): 1.0
- The level of expressed mRNA in the presence of chemical substance/absence: YPL221W (gene YPL221W): 1.0
- The level of expressed mRNA in the presence of chemical substance/absence: YPL225W (gene YPL225W): 0.9
- The level of expressed mRNA in the presence of chemical substance/absence: YPL249C (gene YPL249C): 0.9
- The level of expressed mRNA in the presence of chemical substance/absence: YPL260W (gene YPL260W): 1.0
- level of expressed mRNA in the presence of chemical substance/in its absence (gene YPL265W): 1.8
- level of expressed mRNA in the presence of chemical substance/in its absence (gene YPR006C): 2.4
- level of expressed mRNA in the presence of chemical substance/in its absence (gene YPR026W): 1.6
- The level of expressed mRNA in the presence of chemical substance/absence: YPR049C (gene YPR049C): 0.9
- The level of expressed mRNA in the presence of chemical substance/absence: YPR061C (gene YPR061C): 1.6
- The level of expressed mRNA in the presence of chemical substance/absence: YPR093C (gene YPR093C): 1.2
- The level of expressed mRNA in the presence of chemical substance/absence: YPR146C (gene YPR146C): 1.4
- The level of expressed mRNA in the presence of chemical substance/absence: YPR148C (gene YPR148C): 0.9
- The level of expressed mRNA in the presence of chemical substance/absence: YPR150W (gene YPR150W): 0.9
- The level of expressed mRNA in the presence of chemical substance/absence: YPR158W (gene YPR158W): 1.5
- The level of expressed mRNA in the presence of chemical substance/absence: YPR169W (gene YPR169W): 1.0
- The level of expressed mRNA in the presence of chemical substance/absence: YPR172W (gene YPR172W): 1.9
- The level of expressed mRNA in the presence of chemical substance/absence: YPR174C (gene YPR174C): 0.7
- The level of expressed mRNA in the presence of chemical substance/The level of expressed mRNA in the absence of chemical substance (yeast gene YAR010C): 0.9
- The level of expressed mRNA in the presence of chemical substance/The level of expressed mRNA in the absence of chemical substance (yeast gene YBL005W-A): 0.8
- The level of expressed mRNA in the presence of chemical substance/ (ratio to absence), gene YBL038W (yeast gene YBL038W, mitochondria-located protein genes, 2 h culture with chemical): 0.7
- The level of expressed mRNA in the presence of chemical substance/The level of expressed mRNA in the absence of chemical substance (yeast gene YBL041W): 1.6
- The level of expressed mRNA in the presence of chemical substance/The level of expressed mRNA in the absence of chemical substance (yeast gene YBL043W): 1.5
- The level of expressed mRNA in the presence of chemical substance/The level of expressed mRNA in the absence of chemical substance (yeast gene YBL078C): 4.6
- The level of expressed mRNA in the presence of chemical substance/ (ratio to absence of chemical substance) (yeast gene YBL093C): 1.3
- The level of expressed mRNA in the presence of chemical substance/ (in its absence), gene YBR036C (yeast gene YBR036C, ratio of DNA chip fluorescence intensity to that without chemical substance): 1.5
- The level of expressed mRNA in the presence of chemical substance/ (ratio to absence of chemical substance) (yeast gene YBR044C): 1.1
- The level of expressed mRNA in the presence of chemical substance/ (ratio to absence), gene YBR122C (yeast gene YBR122C, mitochondria-located protein genes, 2 h culture with chemical): 1.2
- The level of expressed mRNA in the presence of chemical substance/The level of expressed mRNA in the absence of chemical substance (yeast gene YBR214W): 3.2
- The level of expressed mRNA in the presence of chemical substance/ (ratio to absence), gene YBR251W (yeast gene YBR251W, mitochondria-located protein genes, 2 h culture with chemical): 1.5
- The level of expressed mRNA in the presence of chemical substance/ (in its absence), gene YBR298C (yeast gene YBR298C, ratio of DNA chip fluorescence intensity to that without chemical substance): 1.5
- The level of expressed mRNA in the presence of chemical substance/The level of expressed mRNA in the absence of chemical substance (yeast gene YCL020W): 1.3
- The level of expressed mRNA in the presence of chemical substance/The level of expressed mRNA in the absence of chemical substance (yeast gene YCL027W): 0.9
- The level of expressed mRNA in the presence of chemical substance/The level of expressed mRNA in the absence of chemical substance (yeast gene YCR004C): 1.9
- The level of expressed mRNA in the presence of chemical substance/ (ratio to absence), gene YCR046C (yeast gene YCR046C, mitochondria-located protein genes, 2 h culture with chemical): 1.5
- The level of expressed mRNA in the presence of chemical substance/The level of expressed mRNA in the absence of chemical substance (yeast gene YCR071C): 1.1
- The level of expressed mRNA in the presence of chemical substance/ (ratio to absence), gene YCR083W (yeast gene YCR083W, mitochondria-located protein genes, 2 h culture with chemical): 1.8
- The level of expressed mRNA in the presence of chemical substance/ (ratio to absence of chemical substance) (yeast gene YCR083W): 1.8
- The level of expressed mRNA in the presence of chemical substance/The level of expressed mRNA in the absence of chemical substance (yeast gene YCR088W): 1.0
- The level of expressed mRNA in the presence of chemical substance/The level of expressed mRNA in the absence of chemical substance (yeast gene YDL008W): 0.9
- The level of expressed mRNA in the presence of chemical substance/ in its absence, gene YDL067C (yeast gene YDL067C, energy system protein genes, 2 h culture with the chemical, ratio to control without chemical): 1.4
- The level of expressed mRNA in the presence of chemical substance/ (ratio to absence), gene YDL067C (yeast gene YDL067C, mitochondria-located protein genes, 2 h culture with chemical): 1.4

— US20050112573A1, “Method of detecting toxic substance” (priority 2001, published 2005)
